In patent US20240383910A1, “SMALL MOLECULE BTK DEGRADERS AND METHODS OF USE THEREOF” (Baylor College of Medicine, priority 2023, published 2024):

Legend:
His-BTK = target: T1, His-BTK (Homo sapiens, UniProt Q06187); assay: TR-FRET competition binding assay with BTK-BODIPY tracer; details: TRFRET assay, up to 100 μM
T1 construct: purchased SignalChem B10-10H-10
Method: Panels a-b. […] Panel c. […] Panel d. […] Panel e. […] Panel f.
Time-resolved fluorescence resonance energy transfer (TR-FRET) assay was carried out to evaluate the binding of indicated compounds and BTK by competition with a BODIPY-FL labeled BTK tracer (See FIG. 1, BTK TR-FRET tracer). The assay was performed in 20 μL assay buffer (50 mM Tris, pH7.5, 0.1% Triton X-100, 0.01% BSA, and 1 mM DTT) with 0.3 nM Tb-anti-His (Cisbio, Cat. No. 61HI2TLA), 2 nM His-BTK (SignalChem, Cat. No. […] Unless specified otherwise, all assays were performed in triplicates. The assay mixtures were incubated at room temperature in the dark for 120 min, unless specified otherwise, and the signals were collected using a BioTek Synergy H1 microplate reader to measure the fluorescence emission ratio ([…]) of each well, using a 340-nm excitation filter, a 100-μs delay, and a 200-μs integration time. Raw data from the plate reader were used directly for analysis. The curve-fitting software GraphPad Prism 9 was used to generate graphs and curves and to determine IC50 values.
To measure the binding affinities between PROTACs and BTK, a time-resolved fluorescence resonance energy transfer (TR-FRET) competition binding assay was developed. A BTK tracer was synthesized by conjugating an ibrutinib-based reversible noncovalent binder with the BODIPY-FL dye (FIG. 1). […] In the presence of the BTK tracer, competition assays were performed to measure the binding affinities between BTK and its inhibitors and PROTACs. […] The very weak BTK binding affinities for PS-RC-1, PS-RC-2, PS-RC-3 and PS-RC-4 explain their minimal BTK degradation effects in cells and further support that the observed growth inhibitory effect of PS-RC-1 in Mino cells is unrelated to the BTK pathway.

IKZF1 = target: T2, IKZF1 (Homo sapiens, UniProt Q13422+Q96SW2); assay: Western blotting for IKZF1 in Mino cells; assay type: cell-based; details: 24 h, Western blot, read-out: IKZF1-WB Endpoint DC50
T2 construct: host or cells: Mino
Method: (§1) Panel a. […] Panel b. […] Panel c. […] Panel d-e. […] Panel g.
After treatment, whole cell lysates for immunoblotting were prepared by pelleting Mino cells at 4° C. and 200×g for 5 minutes. […] Imaging was performed using the ECL Prime chemiluminescent Western blot detection reagents (Kindle Biosciences, Cat. No. R1100) by visualization of the blots with an Imager (Kindle Biosciences, Cat. No. D1001). All Western blots were subsequently processed and quantified with Imager software ImageJ and protein level was normalized to the B-actin loading controls.

IKZF3 = target: T3, IKZF3 (Homo sapiens, UniProt Q96SW2+Q9UKT9); assay: TMT-based quantitative proteomics in Mino cells, IKZF3; assay type: cell-based; details: 200 nM, 4 h
T3 construct: host or cells: Mino
Method: as §1
(§2) Two million of Mino cells were treated with DMSO or 200 nM of PS-2 for 4 hours in biological triplicates and cells were harvested by centrifugation (200×g, 4° C., 5 min). Lysis buffer (100 mM Triethylammonium bicarbonate (TEAB, Thermo Fisher Scientific, Cat. No. 90114), 2% SDS) was added to the cell pellets and homogenized with a microtip sonicator (Branson) to achieve a cell lysate with a protein concentration of ˜2 mg mL^−1. Protein concentration was determined using BCA assay (Pierce, Cat. No. 23225) and normalized to 1 mg mL^−1. One hundred μg of protein for each sample were reduced and alkylated with 10 mM Tris(2-carboxyethyl) phosphine hydrochloride (TCEP, Sigma, Cat. No. C4706) and 17 mM iodoacetamide (IAA, Sigma, Cat. No. 16125-5G), followed by digestion with trypsin (1:20, enzyme: protein, Thermo Fisher Scientific, Cat. No. 90058) for 16 h shaking at 37° C. […]
(§3) Next, tandem mass tagging (TMT)-based quantitative proteomic profiling was performed to evaluate the degradation specificity of PS-2. […] Quantitative proteomics employing TMT chemical labeling coupled with LC/MS/MS enabled the detection of >2,500 unique proteins without fractionation (FIG. 4f). […]

CSK = target: T4, CSK (Homo sapiens, UniProt P41240); assay: TMT-based quantitative proteomics in Mino cells, CSK; assay type: cell-based; details: 200 nM, 4 h
T4 construct: host or cells: Mino
Method: as §1, §2, §3

[1] = Mouse S9 metabolic stability assay; assay type: in vitro ADME; details: co-incubated with mouse liver S9 enzymes, LC-MS; read-out: t1/2 in mouse liver S9
Method: To verify the metabolic stability of PS-2, PS-2 was co-incubated with mouse liver S9 enzymes and LC-MS was used to test the remaining amount of PS-2 compound. DD-03-171 was used as a control (FIG. 11).

Mino cells = assay: TMT-based quantitative proteomics in Mino cells, degradation specificity over the proteome; assay type: cell-based; details: 200 nM, 4 h, >2,500 proteins
Method: as §1, §2, §3

BTK = BTK (Homo sapiens, UniProt Q06187); assay: Western blotting for BTK in Ramos cells; assay type: cell-based; parameters: host or cells: Ramos; details: Ramos cells, 40, 200 and 1000 nM, 24 h, Western blot
Method: CC-220 is a IKZF1/3 degrader developed by Celgene and used for comparison.
In contrast, PS-3, whose warhead is further reduced compared with PS-2, loses its ability to function as either a BTK degrader or a potent IKZF1/3 molecular glue. To confirm this observation, BTK degradation induced by PS-1, PS-2, and PS-3 was tested in both a human B lymphocyte cell line Ramos and mouse BALB/c B cell lymphoma line A20, with DD-03-171 from the Gray group as a positive control (FIG. 5).

T4 sequence (P41240 whole entry): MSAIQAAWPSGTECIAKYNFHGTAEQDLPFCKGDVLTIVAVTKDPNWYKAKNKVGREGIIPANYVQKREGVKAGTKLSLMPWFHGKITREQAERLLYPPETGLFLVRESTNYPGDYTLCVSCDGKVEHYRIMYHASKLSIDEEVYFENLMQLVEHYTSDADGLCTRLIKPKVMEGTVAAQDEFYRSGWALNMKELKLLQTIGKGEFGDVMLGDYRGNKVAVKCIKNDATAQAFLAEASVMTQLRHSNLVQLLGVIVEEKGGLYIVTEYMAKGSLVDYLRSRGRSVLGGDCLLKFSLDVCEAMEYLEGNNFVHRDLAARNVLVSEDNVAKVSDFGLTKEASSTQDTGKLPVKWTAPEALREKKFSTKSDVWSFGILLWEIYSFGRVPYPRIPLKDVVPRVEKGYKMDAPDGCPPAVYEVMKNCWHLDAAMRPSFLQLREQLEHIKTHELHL
T2 sequence (Q13422 whole entry): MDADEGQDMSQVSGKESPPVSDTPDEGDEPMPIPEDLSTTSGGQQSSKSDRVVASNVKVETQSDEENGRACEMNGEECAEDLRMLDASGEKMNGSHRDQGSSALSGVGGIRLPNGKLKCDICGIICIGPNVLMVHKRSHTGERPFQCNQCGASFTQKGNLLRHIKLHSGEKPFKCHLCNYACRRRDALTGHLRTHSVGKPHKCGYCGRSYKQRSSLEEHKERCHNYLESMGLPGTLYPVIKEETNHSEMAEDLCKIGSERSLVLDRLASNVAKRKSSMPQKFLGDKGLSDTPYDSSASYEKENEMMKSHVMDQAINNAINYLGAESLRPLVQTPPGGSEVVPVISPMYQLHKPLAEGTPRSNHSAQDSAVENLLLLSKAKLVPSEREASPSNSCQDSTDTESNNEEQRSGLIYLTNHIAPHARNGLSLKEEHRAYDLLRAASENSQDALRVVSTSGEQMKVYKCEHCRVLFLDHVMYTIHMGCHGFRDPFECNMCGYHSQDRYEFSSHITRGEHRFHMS
T2 sequence (Q96SW2 whole entry): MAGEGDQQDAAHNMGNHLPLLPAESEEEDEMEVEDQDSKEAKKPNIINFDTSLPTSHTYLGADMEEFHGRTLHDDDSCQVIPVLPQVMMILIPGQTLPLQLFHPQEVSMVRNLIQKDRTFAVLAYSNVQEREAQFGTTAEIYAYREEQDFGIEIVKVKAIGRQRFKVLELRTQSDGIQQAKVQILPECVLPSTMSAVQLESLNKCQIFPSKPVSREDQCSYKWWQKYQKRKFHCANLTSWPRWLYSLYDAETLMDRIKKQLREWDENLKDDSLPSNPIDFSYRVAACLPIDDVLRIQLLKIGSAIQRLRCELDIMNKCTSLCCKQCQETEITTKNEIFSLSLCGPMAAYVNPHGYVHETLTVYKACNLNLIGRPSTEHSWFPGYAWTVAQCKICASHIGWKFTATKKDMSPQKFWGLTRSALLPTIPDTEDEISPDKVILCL
T2 sequence (Q16531 whole entry partner): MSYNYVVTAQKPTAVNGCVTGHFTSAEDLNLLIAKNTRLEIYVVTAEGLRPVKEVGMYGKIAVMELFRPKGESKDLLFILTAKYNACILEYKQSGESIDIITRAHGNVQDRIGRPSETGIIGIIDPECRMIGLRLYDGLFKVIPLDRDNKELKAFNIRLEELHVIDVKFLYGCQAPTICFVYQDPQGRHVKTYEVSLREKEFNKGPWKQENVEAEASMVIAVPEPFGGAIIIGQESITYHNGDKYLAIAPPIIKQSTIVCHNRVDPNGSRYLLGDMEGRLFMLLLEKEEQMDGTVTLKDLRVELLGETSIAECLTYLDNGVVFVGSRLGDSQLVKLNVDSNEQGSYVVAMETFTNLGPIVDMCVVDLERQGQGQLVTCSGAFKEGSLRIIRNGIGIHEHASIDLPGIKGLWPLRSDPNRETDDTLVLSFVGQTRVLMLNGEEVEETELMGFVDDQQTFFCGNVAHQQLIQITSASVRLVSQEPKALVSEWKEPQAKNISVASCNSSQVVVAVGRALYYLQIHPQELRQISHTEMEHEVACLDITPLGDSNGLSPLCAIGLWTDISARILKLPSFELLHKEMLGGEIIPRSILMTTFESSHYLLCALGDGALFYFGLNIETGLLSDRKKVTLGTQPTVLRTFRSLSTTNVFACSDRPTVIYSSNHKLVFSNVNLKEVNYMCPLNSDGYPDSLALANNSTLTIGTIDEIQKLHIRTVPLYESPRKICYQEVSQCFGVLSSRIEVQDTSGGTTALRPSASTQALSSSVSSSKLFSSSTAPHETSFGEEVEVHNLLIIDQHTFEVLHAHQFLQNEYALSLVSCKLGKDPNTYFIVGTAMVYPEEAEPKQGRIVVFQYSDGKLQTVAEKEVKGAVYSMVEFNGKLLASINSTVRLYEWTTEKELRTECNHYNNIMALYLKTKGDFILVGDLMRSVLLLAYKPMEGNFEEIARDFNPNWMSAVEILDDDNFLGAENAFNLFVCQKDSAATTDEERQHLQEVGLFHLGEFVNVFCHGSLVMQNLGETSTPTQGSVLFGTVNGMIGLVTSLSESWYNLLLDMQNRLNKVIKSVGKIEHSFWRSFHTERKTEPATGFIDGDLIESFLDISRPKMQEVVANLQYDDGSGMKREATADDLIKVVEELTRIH
Sequence of BTK (Q06187 whole entry): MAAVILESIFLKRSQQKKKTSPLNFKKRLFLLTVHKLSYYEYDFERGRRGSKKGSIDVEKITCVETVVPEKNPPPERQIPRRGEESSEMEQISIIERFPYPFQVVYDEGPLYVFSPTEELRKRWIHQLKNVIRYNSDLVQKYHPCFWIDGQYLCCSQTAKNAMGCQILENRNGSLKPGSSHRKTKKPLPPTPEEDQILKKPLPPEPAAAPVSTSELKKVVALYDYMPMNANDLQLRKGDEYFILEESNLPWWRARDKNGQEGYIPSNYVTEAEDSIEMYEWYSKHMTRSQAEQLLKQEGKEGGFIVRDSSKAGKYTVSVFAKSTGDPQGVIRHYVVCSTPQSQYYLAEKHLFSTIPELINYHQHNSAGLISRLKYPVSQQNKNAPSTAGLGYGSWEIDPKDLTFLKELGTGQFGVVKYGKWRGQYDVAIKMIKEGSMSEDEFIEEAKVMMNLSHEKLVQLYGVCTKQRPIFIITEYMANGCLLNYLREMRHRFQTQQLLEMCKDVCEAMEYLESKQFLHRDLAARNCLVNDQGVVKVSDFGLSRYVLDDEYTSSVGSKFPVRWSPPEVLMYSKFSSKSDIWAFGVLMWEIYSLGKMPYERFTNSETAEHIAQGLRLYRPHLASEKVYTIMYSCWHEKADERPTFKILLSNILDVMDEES
T1 sequence (Q06187 whole entry): as above
T3 sequence (Q9UKT9 whole entry): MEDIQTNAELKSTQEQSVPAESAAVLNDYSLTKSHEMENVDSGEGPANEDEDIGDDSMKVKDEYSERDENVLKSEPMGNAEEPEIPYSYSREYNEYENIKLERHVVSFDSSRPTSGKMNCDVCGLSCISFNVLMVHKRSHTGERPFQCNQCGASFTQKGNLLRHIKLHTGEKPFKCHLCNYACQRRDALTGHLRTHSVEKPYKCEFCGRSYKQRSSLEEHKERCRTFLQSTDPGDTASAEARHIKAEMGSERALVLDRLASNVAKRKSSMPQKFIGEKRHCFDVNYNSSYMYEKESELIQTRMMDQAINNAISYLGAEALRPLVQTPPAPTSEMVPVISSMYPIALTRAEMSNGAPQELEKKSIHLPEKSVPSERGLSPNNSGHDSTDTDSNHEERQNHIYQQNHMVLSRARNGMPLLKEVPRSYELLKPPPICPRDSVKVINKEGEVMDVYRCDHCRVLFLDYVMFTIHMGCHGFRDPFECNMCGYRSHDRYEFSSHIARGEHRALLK
T3 sequence (Q96SW2 whole entry): as the sequence (Q96SW2 whole entry) above
T3 sequence (Q16531 whole entry partner): as the sequence (Q16531 whole entry partner) above

## O=C1CCC(N2C(=O)c3cccc(NCC(=O)N4CCN(c5ccc(Nc6nccc(Oc7ccccc7)n6)cc5)CC4)c3C2=O)C(=O)N1 (stereo not shown) [PS-2, 2-(2,6-Dioxopiperidin-3-yl)-4-((2-oxo-2-(4-(4-((4-phenoxypyrimidin-2-yl)amino)phenyl)piperazin-1-yl)ethyl)amino)isoindoline-1,3-dione]
His-BTK
  binding to BTK (result in words): almost no binding to BTK
IKZF1
  DC50: 28 nM
IKZF3
  degradation of IKZF3: > 60%
CSK
  CSK protein level change: downregulated
[1]
  half-life: ~20 min
Mino cells
  other proteins downregulated by at least 25% with statistical significance: No other proteins are downregulated
BTK
  BTK degradation (result in words): potent BTK degradation
